{"source": "patent US20110230359A1", "about": "“LABEL-FREE ON-TARGET PHARMACOLOGY METHODS” (priority 2010, published 2011)", "key": {"GPR109A": {"tested_on": "GPR109A", "test": "modulation profiling DMR assay, marker nicotinic acid, A431 cells", "assay_type": "cell-based, human", "settings": "10 μM salbutamol pretreatment ~1 hr, 1 μM nicotinic acid"}, "EGFR": {"tested_on": "EGFR", "test": "modulation profiling DMR assay, marker EGF, A431 cells", "assay_type": "cell-based, human", "settings": "10 μM salbutamol pretreatment ~1 hr, 32 nM epidermal growth factor"}}, "data": [{"smiles": "CC(C)(C)NCC(O)c1ccc(O)c(CO)c1", "note": "(centres unmarked) [salbutamol]", "values": [{"measurement": "modulation of nicotinic acid DMR (P-DMR)", "setting": "GPR109A", "value": "potentiates"}, {"measurement": "modulation of EGF DMR (P-DMR and N-DMR)", "setting": "EGFR", "value": "little impact"}]}]}
